The values below come from patent US7888363B2, “Viral polymerase inhibitors” (Boehringer Ingelheim International GmbH, priority 2003, dated 2011).

Sequence of hepatitis C virus RNA dependant polymerase (NS5B) (P26663 2420-3010): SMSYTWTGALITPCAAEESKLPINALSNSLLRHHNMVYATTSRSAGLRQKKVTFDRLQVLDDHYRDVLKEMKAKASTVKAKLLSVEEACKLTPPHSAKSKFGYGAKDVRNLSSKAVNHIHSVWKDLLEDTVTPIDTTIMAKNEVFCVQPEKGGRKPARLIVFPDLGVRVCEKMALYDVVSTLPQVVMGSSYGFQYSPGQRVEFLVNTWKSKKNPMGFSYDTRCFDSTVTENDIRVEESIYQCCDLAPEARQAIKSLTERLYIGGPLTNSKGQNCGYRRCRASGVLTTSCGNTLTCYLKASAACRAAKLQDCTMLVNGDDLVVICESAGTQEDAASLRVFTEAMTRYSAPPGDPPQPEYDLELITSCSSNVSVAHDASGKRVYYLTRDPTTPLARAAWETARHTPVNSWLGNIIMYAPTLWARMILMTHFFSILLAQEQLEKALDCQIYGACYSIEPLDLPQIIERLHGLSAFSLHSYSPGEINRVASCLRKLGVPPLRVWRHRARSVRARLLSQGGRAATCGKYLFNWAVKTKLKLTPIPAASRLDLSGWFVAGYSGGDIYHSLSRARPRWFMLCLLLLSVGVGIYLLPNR

The first experiment deals with hepatitis C virus RNA dependant polymerase (NS5B) (Hepatitis C virus genotype 1b, UniProt P26663). The experiment can be described thus: Inhibition of NS5B RNA dependent RNA polymerase activity. It is filed as biochemical. Conditions: Table 1; HCV NS5B polymerase. The procedure:
A suitable assay is described in the examples.
Inhibition of NS5B RNA Dependent RNA Polymerase Activity
The compounds of the invention were tested for inhibitory activity against the hepatitis C virus RNA dependant polymerase (NS5B), according to protocol described in WO 03/010141
As for `CC(C)(C)C(=O)Cn1c(-c2ccoc2)c(C2CCCCC2)c2ccc(C(=O)O)cc21` [Example 1001], the IC50 is 200 to 1000 nM.

As to `CN1CCCN(C(=O)Cn2c(-c3ccoc3)c(C3CCCCC3)c3ccc(C(=O)O)cc32)CC1` [Example 1003], the IC50 is less than 200 nM.

In turn, `CN(CCc1ccncc1)C(=O)Cn1c(-c2ccoc2)c(C2CCCCC2)c2ccc(C(=O)O)cc21` [Example 1004] yielded an IC50 of less than 200 nM.

`CCN(Cc1ccncc1)C(=O)Cn1c(-c2ccoc2)c(C2CCCCC2)c2ccc(C(=O)O)cc21` [Example 1005] registered an IC50 of 200 to 1000 nM.

Turning to `CC(C)CN(C)C(=O)Cn1c(-c2ccoc2)c(C2CCCCC2)c2ccc(C(=O)O)cc21` [Example 1006], the IC50 fell in the range of 200 to 1000 nM.

Compound `CCN(CC)CCN(CC)C(=O)Cn1c(-c2ccoc2)c(C2CCCCC2)c2ccc(C(=O)O)cc21` [Example 1007] came in with a 50% inhibitory concentration (IC50) of less than 200 nM.

In the case of `CCCN(C)C(=O)Cn1c(-c2ccoc2)c(C2CCCCC2)c2ccc(C(=O)O)cc21` [Example 1008], the 50% inhibitory concentration (IC50) was less than 200 nM.

As to `O=C(Cn1c(-c2ccoc2)c(C2CCCCC2)c2ccc(C(=O)O)cc21)NCCCN1CCOCC1` [Example 1009], the IC50 was 200 to 1000 nM.

Take `O=C(O)c1ccc2c(C3CCCCC3)c(-c3ccoc3)n(CC(=O)N3CCC(N4CCCCC4)CC3)c2c1` [Example 1010]: the IC50 is less than 200 nM.

On to `CCCN(CCC)C(=O)Cn1c(-c2ccoc2)c(C2CCCCC2)c2ccc(C(=O)O)cc21` [Example 1011], for which the IC50 was in the range of 200 to 1000 nM.

The compound `O=C(O)c1ccc2c(C3CCCCC3)c(-c3ccoc3)n(CC(=O)N3CCSCC3)c2c1` [Example 1012] gave an IC50 of less than 200 nM.

With `CS(=O)(=O)NC(=O)Cn1c(-c2ccoc2)c(C2CCCCC2)c2ccc(C(=O)O)cc21` [Example 1013], the 50% inhibitory concentration (IC50) is 200 to 1000 nM.

For `COCCN(CCOC)C(=O)Cn1c(-c2ccco2)c(C2CCCCC2)c2ccc(C(=O)O)cc21` [Example 1014], the IC50 was 200 to 1000 nM.

For the compound `CCCN(CCOC)C(=O)Cn1c(-c2ccoc2)c(C2CCCCC2)c2ccc(C(=O)O)cc21` [Example 1015], the IC50 was in the range of 200 to 1000 nM.

In turn, `CCN(CC)C1CCN(C(=O)Cn2c(-c3ccoc3)c(C3CCCCC3)c3ccc(C(=O)O)cc32)C1` (stereo not drawn) [Example 1016] registered an IC50 of less than 200 nM.

`CCN(CCOC)C(=O)Cn1c(-c2ccoc2)c(C2CCCCC2)c2ccc(C(=O)O)cc21` [Example 1017] showed an IC50 of less than 200 nM.

As to `O=C(O)c1ccc2c(C3CCCCC3)c(-c3ccoc3)n(CC(=O)N3CC[C@@H]4CCCC[C@@H]4C3)c2c1` [Example 1018], the half-maximal inhibitory concentration (IC50) lay within 1000 to 10000 nM.

The compound `CN(C)CCCN(C)C(=O)Cn1c(-c2ccoc2)c(C2CCCCC2)c2ccc(C(=O)O)cc21` [Example 1019] returned an IC50 of less than 200 nM.

Regarding `CC1CN(C(=O)Cn2c(-c3ccoc3)c(C3CCCCC3)c3ccc(C(=O)O)cc32)CC(C)O1` (stereo not drawn) [Example 1020], the IC50 is less than 200 nM.

On to `CCN(CC)CCN(C)C(=O)Cn1c(-c2ccoc2)c(C2CCCCC2)c2ccc(C(=O)O)cc21` [Example 1021], for which the IC50 was less than 200 nM.

`CCN(CCN(C)C)C(=O)Cn1c(-c2ccoc2)c(C2CCCCC2)c2ccc(C(=O)O)cc21` [Example 1022] showed an IC50 of 200 to 1000 nM.

For `O=C(O)c1ccc2c(C3CCCCC3)c(-c3ccccc3)n(CC(=O)N3CCOCC3)c2c1` [Example 1023], the IC50 was less than 200 nM.

Take `O=C(O)c1ccc2c(C3CCCCC3)c(-c3ccccc3)n(CC(=O)N3CCC(N4CCCC4)CC3)c2c1` [Example 1024]: the IC50 was less than 200 nM.

As for `CN(C)C(=O)Cn1c(-c2ccccc2)c(C2CCCCC2)c2ccc(C(=O)O)cc21` [Example 1025], the IC50 is less than 200 nM.

Compound `O=C(O)c1ccc2c(C3CCCCC3)c(-c3ccsc3)n(CC(=O)N3CCOCC3)c2c1` [Example 1027] showed an IC50 of less than 200 nM.

In turn, `CN(C)C(=O)Cn1c(-c2ccsc2)c(C2CCCCC2)c2ccc(C(=O)O)cc21` [Example 1028] displayed an IC50 of less than 200 nM.

The compound `O=C(O)c1ccc2c(C3CCCCC3)c(-c3ccco3)n(CC(=O)N3CCOCC3)c2c1` [Example 1030] gave an IC50 of less than 200 nM.

Turning to `CN(C)C(=O)Cn1c(-c2ccco2)c(C2CCCCC2)c2ccc(C(=O)O)cc21` [Example 1031], the IC50 was less than 200 nM.

As for `CC(C)NC(=O)Cn1c(-c2ccco2)c(C2CCCCC2)c2ccc(C(=O)O)cc21` [Example 1032], the IC50 lay within 200 to 1000 nM.

In the case of `O=C(O)c1ccc2c(C3CCCCC3)c(-c3cccs3)n(CC(=O)N3CCOCC3)c2c1` [Example 1033], the IC50 was less than 200 nM.

In the case of `O=C(O)c1ccc2c(C3CCCCC3)c(-c3cccs3)n(CC(=O)N3CCC(N4CCCC4)CC3)c2c1` [Example 1034], the IC50 was less than 200 nM.

In turn, `CN(C)C(=O)Cn1c(-c2cccs2)c(C2CCCCC2)c2ccc(C(=O)O)cc21` [Example 1035] displayed an IC50 of less than 200 nM.

Consider `CC(C)NC(=O)Cn1c(-c2cccs2)c(C2CCCCC2)c2ccc(C(=O)O)cc21` [Example 1036], for which the IC50 lay within 200 to 1000 nM.

As to `O=C(O)c1ccc2c(C3CCCCC3)c(-c3ccsc3)n(CC(=O)N3CCC(N4CCCC4)CC3)c2c1` [Example 1037], the IC50 was less than 200 nM.

The compound `O=C(O)c1ccc2c(C3CCCCC3)c(-c3ccco3)n(CC(=O)N3CCC(N4CCCC4)CC3)c2c1` [Example 1038] gave an IC50 of less than 200 nM.

`CN(C)C(=O)Cn1c(-c2cccn2C)c(C2CCCCC2)c2ccc(C(=O)O)cc21` [Example 1039]: the IC50 lay within 200 to 1000 nM.

On to `O=C(O)c1ccc2c(C3CCCCC3)c(-c3csc(N4CCCCC4)n3)n(CC(=O)N3CCOCC3)c2c1` [Example 1040], for which the half-inhibitory concentration (IC50) is 200 to 1000 nM.

On to `CC(C)(C)Nc1nc(-c2c(C3CCCCC3)c3ccc(C(=O)O)cc3n2CC(=O)N2CCOCC2)cs1` [Example 1041], for which the IC50 is 200 to 1000 nM.

Turning to `O=C(O)c1ccc2c(C3CCCCC3)c(-c3cc4ccccc4s3)n(CC(=O)N3CCOCC3)c2c1` [Example 1042], the IC50 was in the range of 200 to 1000 nM.

`CN(C)C(=O)Cn1c(-c2ccoc2)c(C2CCCC2)c2ccc(C(=O)O)cc21` [Example 1044]: the IC50 is less than 200 nM.

On to `O=C(O)c1ccc2c(C3CCCCC3)c(-c3cnccn3)n(CC(=O)N3CCC(N4CCCC4)CC3)c2c1` [Example 1045], for which the IC50 is less than 200 nM.

With `CN(C)C(=O)Cn1c(-c2cc3ccccc3s2)c(C2CCCCC2)c2ccc(C(=O)O)cc21` [Example 1046], the IC50 was in the range of 1000 to 10000 nM.

As to `O=C(O)c1ccc2c(C3CCCCC3)c(-c3csc4ccccc34)n(CC(=O)N3CCOCC3)c2c1` [Example 1047], the IC50 was 1000 to 10000 nM.

Consider `O=C(O)c1ccc2c(C3CCCCC3)c(-c3csc4ccccc34)n(CC(=O)N3CCC(N4CCCC4)CC3)c2c1` [Example 1048], for which the IC50 is 200 to 1000 nM.

Consider `O=C(O)c1ccc2c(C3CCCCC3)c(-c3cc4ccccc4s3)n(CC(=O)N3CCC(N4CCCC4)CC3)c2c1` [Example 1049], for which the IC50 is 200 to 1000 nM.

With `Nc1cccc(-c2c(C3CCCCC3)c3ccc(C(=O)O)cc3n2CC(=O)N2CCC(N3CCCC3)CC2)n1` [Example 1050], the IC50 is less than 200 nM.

For `CC(C)(NC(=O)Cn1c(-c2ccoc2)c(C2CCCCC2)c2ccc(C(=O)O)cc21)C(=O)Nc1ccc(/C=C/C(=O)O)cc1` [Example 1051], the IC50 is less than 200 nM.

`CC(C)(NC(=O)Cn1c(-c2ccoc2)c(C2CCCCC2)c2ccc(C(=O)O)cc21)C(=O)Nc1ccc(-c2nc(C(=O)O)cs2)cc1` [Example 1052] gave an IC50 of less than 200 nM.

The compound `CC(C)(NC(=O)Cn1c(-c2ccoc2)c(C2CCCCC2)c2ccc(C(=O)O)cc21)C(=O)Nc1ccc(-c2ccc(C(=O)O)o2)cc1` [Example 1053] returned an IC50 of less than 200 nM.

`Cn1c(C(=O)O)cc2cc(NC(=O)C(C)(C)NC(=O)Cn3c(-c4ccoc4)c(C4CCCCC4)c4ccc(C(=O)O)cc43)ccc21` [Example 1054] showed an IC50 of less than 200 nM.

For the compound `O=C(Cn1c(-c2ccoc2)c(C2CCCCC2)c2ccc(C(=O)O)cc21)N[C@@H](Cc1ccc(O)cc1)C(=O)O` [Example 1055], the IC50 was less than 200 nM.

In turn, `O=C(Cn1c(-c2ccoc2)c(C2CCCCC2)c2ccc(C(=O)O)cc21)NCc1ccco1` [Example 1056] had an IC50 of 200 to 1000 nM.

`NC(=O)[C@@H]1CCCN1C(=O)Cn1c(-c2ccoc2)c(C2CCCCC2)c2ccc(C(=O)O)cc21` [Example 1057] gave an IC50 of less than 200 nM.

In turn, `O=C(O)c1ccc2c(C3CCCCC3)c(-c3ccoc3)n(CC(=O)N3CCC(C(=O)O)CC3)c2c1` [Example 1058] showed an IC50 of less than 200 nM.

Compound `O=C(Cn1c(-c2ccoc2)c(C2CCCCC2)c2ccc(C(=O)O)cc21)NNC(=O)c1ccncc1` [Example 1059] showed an IC50 of less than 200 nM.

Consider `O=C(Cn1c(-c2ccoc2)c(C2CCCCC2)c2ccc(C(=O)O)cc21)Nc1ccccc1` [Example 1060], for which the IC50 is 200 to 1000 nM.

Turning to `O=C(Cn1c(-c2ccoc2)c(C2CCCCC2)c2ccc(C(=O)O)cc21)Nc1ccc(C(=O)O)cc1` [Example 1061], the IC50 lay within 200 to 1000 nM.

In the case of `CNC(=O)Cn1c(-c2ccoc2)c(C2CCCCC2)c2ccc(C(=O)O)cc21` [Example 1062], the IC50 was in the range of 200 to 1000 nM.

`O=C(Cn1c(-c2ccoc2)c(C2CCCCC2)c2ccc(C(=O)O)cc21)NCc1ccccc1` [Example 1063] gave an IC50 of 200 to 1000 nM.

Compound `COc1ccc(CNC(=O)Cn2c(-c3ccoc3)c(C3CCCCC3)c3ccc(C(=O)O)cc32)cc1` [Example 1064] gave an IC50 of 1000 to 10000 nM.

In the case of `NC(=O)Cn1c(-c2ccoc2)c(C2CCCCC2)c2ccc(C(=O)O)cc21` [Example 1065], the IC50 was 200 to 1000 nM.

As for `O=C(O)c1ccc2c(C3CCCCC3)c(-c3ccoc3)n(CC(=O)N3CCC[C@H]3C(=O)O)c2c1` [Example 1066], the IC50 is less than 200 nM.

Turning to `O=C(O)CNC(=O)Cn1c(-c2ccoc2)c(C2CCCCC2)c2ccc(C(=O)O)cc21` [Example 1067], the IC50 is less than 200 nM.

For `O=C(O)CNNC(=O)Cn1c(-c2ccoc2)c(C2CCCCC2)c2ccc(C(=O)O)cc21` [Example 1068], the IC50 is less than 200 nM.

As to `NS(=O)(=O)c1ccc(CNC(=O)Cn2c(-c3ccoc3)c(C3CCCCC3)c3ccc(C(=O)O)cc32)cc1` [Example 1069], the IC50 lay within 200 to 1000 nM.

The experiment is the same for the next values; noted with them: Table 4; class ranges.
In turn, `CN1CCN(C(=O)Cn2c(-c3ccoc3)c(C3CCCCC3)c3ccc(C(=O)NC4CC4c4ccccc4)cc32)CC1` (racemic) [Example 4038] displayed an IC50 of 200 to 1000 nM.
